Common to all, as to assay: In vitro antimicrobial activity (M.I.C.)
Format in all cases: cell-based

In test [1] the test system is Candida albicans ATCC 10231. To be noted: ATCC10231, average values. As for the experimental part:
(§1) The first is prepared from Krameria triandra and from Mesua ferrea. The activity, expressed in M.I.C. (minimum inhibitory concentration), was evaluated by normal terms within the art. Moreover, one of ordinary skill in the art with little or no experimentation can optimize the results for a particular antimicrobial compound or mixtures of compounds.

Test [2] relates to Trichophyton mentagrophytes 193. To be noted: average values. As for the experimental part:
as §1

For test [3], the system named is Streptococcus feaecalis LEP Br. To be noted: average values. As for the experimental part:
as §1

The next test concerns Propionibacterium acnes. As to conditions: Cutibacterium acnes, average values. As for the experimental part: as §1
The next test relates to Escherichia coli CNUR 1. To be noted: CNUR1, average values. As for the experimental part: as §1
Test [4] deals with Pseudomonas aeruginosa CNUR 4. To be noted: CNUR4, average values. As for the experimental part: as §1
The test system of test [5] is Staphilococcus aureus ATCC6538. To be noted: average values. As for the experimental part: as §1
For test [6], the system named is Staphilococcus epidermis CPHL. As to conditions: average values. The procedure: as §1
Test [7] concerns Staphilococcus aureus MPR5. As to conditions: average values. The procedure: as §1
A further test has as its system Bacteroides fragilis. As to conditions: average values. As for the experimental part: as §1
For the next test, the system named is Acinetobacter cal. OSMPV. To be noted: average values. The procedure: as §1

The record followed here is patent US6475536B2, “Pharmaceutical and cosmetic formulations with antimicrobial activity” (Indena S.p.A., priority 1996, dated 2002).

As usually defined, the MIC is the lowest concentration found to suppress growth. High values mean weaker potency, low ones greater potency.

Structures are written as SMILES. Values after ≈ are worked out from the molar mass of the structure shown.

As to `Clc1ccc(COC(Cn2ccnc2)c2ccc(Cl)cc2Cl)c(Cl)c1` (centres unmarked) [miconazole], the MIC in test [1] and in test [2] was 2 µg/mL (≈ 4.81 µM) each time.
Consider `CN1CCN(c2c(F)cc3c(=O)c(C(=O)O)cn4c3c2SCC4)CC1` [rufloxacin], for which the MIC in test [3] amounted to 16 µg/mL (≈ 44 µM); against Propionibacterium acnes, 32 µg/mL (≈ 88.1 µM); with Escherichia coli CNUR 1 it was 0.51 µg/mL (≈ 1.4 µM); in test [4], 32 µg/mL (≈ 88.1 µM); in test [5], 0.5 µg/mL (≈ 1.38 µM); in [6] it was 1 µg/mL (≈ 2.75 µM). The minimum inhibitory concentration (MIC) turned out to be 1 µg/mL (≈ 2.75 µM) in test [7], 32 µg/mL (≈ 88.1 µM) in the test on Bacteroides fragilis and 2 µg/mL (≈ 5.5 µM) in the test on Acinetobacter cal. OSMPV.
